This is an account of results in article PMC11818712, “Unveiling the Multitarget Potential of a Rare Caffeoyl Ester from Artemisia capillaris for Diabetes Mellitus: An Integrated In Vitro and In Silico Study” (International Journal of Molecular Sciences, 2025).

By IC50 is commonly meant the concentration needed to halve the response being measured.

The target of one assay is T1, PTP1B (Homo sapiens, UniProt P18031).
T1 sequence (P18031 1-435): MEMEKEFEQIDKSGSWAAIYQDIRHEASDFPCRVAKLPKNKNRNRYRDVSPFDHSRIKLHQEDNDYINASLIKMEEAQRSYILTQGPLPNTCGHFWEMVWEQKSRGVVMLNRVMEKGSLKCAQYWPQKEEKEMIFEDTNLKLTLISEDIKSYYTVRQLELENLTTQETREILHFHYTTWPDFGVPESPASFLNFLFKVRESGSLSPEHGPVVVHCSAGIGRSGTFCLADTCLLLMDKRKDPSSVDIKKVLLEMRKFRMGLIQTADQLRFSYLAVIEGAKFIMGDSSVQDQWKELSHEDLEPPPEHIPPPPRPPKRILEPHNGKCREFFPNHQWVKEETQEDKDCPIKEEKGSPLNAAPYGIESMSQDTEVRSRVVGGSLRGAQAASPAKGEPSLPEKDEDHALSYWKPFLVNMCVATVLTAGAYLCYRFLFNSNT
Kind of assay: PTP1B-inhibitory activity assay (p-NPP substrate). In kind it is biochemical. As to the method:
Following incubation at 37 °C for 30 min, the reaction was terminated with the addition of 10 M NaOH.

A further assay deals with α-glucosidase (Saccharomyces cerevisiae, UniProt P53341). It is filed as biochemical. The following applies: at the tested concentration. The procedure: Enzyme inhibition studies were carried out spectrophotometrically in a 96-well microplate reader using a procedure reported by Li. A 60 µL reaction mixture, containing 20 µL of 100 mM phosphate buffer (pH 6.8), 20 µL of 2.5 mM p-NPG in the buffer, and 20 µL of PPT-14 dissolved in 10% DMSO, was added to each well. The enzymatic reaction was initiated by the addition of 20 µL of 10 mM phosphate buffer (pH 6.8), containing 0.2 U/mL α-glucosidase to each well. The plate was incubated at 37 °C for 15 min, and then 80 µL of 0.2 mol/L sodium carbonate solution was added to stop the reaction. Immediately after that, the absorbance was recorded at 405 nm using a VERSA max (Molecular Devices, Sunnyvale, CA, USA) microplate reader. Control samples contained the same reaction mixture, except that an equivalent volume of phosphate buffer was added instead of the sample solution. […] The inhibition (%) was calculated as (Ac − As)/Ac × 100%, where Ac was the absorbance of the control, and As was the absorbance of the sample.

Assay [1] is described as follows: DPPH radical scavenging activity assay. The settings on record: free radical scavenging. The procedure: The DPPH radical scavenging activity was evaluated using methods outlined in Blois (1958), with slight modifications. Different concentrations in 160 μL of MeOH (final concentration = 320 μg/mL for the extracts, fractions, and the compounds) were added to 40 μL of a DPPH:MeOH solution (1.5 × 10^−4 M). After gently mixing the sample and letting it stand at room temperature for 30 min, the optical density was measured at 520 nm using a VERSAmax microplate spectrophotometer (Molecular Devices). […] We used L-ascorbic acid as the positive control. The IC50 values presented here are expressed as the mean ± the standard error of the mean of triplicate experiments.
A general note: The DPPH test is a chemical assay of radical scavenging.

Assay [2] has as its target human recombinant aldose reductase (HRAR) (Homo sapiens, UniProt P15121). Kind of assay: Human recombinant aldose reductase (HRAR)-inhibitory activity assay (DL-glyceraldehyde substrate). It is filed as biochemical.
Protocol: The reaction mixture was prepared as follows: we combined 100 µL of 0.15 mM nicotinamide adenine dinucleotide phosphate (NADPH), 100 µL of 10mM DL-glyceraldehyde as a substrate, and 5 µL of HRAR with the sample (final concentration of 100 µM for the test compound, dissolved in 100% DMSO) in a total volume of 1.0 mL of 100 mM sodium phosphate buffer (pH 6.2). The AR activity was determined by measuring the decrease in nicotinamide adenine dinucleotide phosphate (NADPH) absorption at 340 nm over a period of 1 min using an Ultrospec-2100pro UV–visible spectrophotometer with Microsoft™ Excel, control by SWIFT II software (Amersham Biosciences, Piscataway, NJ, USA). […] The inhibition percentage (%) was calculated as described for the assay of Renilla luciferase, except that the DA sample/min represented a reduction in absorbance for 1 min with the test samples and substrate. The HRAR-inhibitory activity of each sample was expressed in terms of the IC50 value (µM), which was calculated from the log–dose inhibition curve.

Sequence of α-glucosidase (P53341 whole entry): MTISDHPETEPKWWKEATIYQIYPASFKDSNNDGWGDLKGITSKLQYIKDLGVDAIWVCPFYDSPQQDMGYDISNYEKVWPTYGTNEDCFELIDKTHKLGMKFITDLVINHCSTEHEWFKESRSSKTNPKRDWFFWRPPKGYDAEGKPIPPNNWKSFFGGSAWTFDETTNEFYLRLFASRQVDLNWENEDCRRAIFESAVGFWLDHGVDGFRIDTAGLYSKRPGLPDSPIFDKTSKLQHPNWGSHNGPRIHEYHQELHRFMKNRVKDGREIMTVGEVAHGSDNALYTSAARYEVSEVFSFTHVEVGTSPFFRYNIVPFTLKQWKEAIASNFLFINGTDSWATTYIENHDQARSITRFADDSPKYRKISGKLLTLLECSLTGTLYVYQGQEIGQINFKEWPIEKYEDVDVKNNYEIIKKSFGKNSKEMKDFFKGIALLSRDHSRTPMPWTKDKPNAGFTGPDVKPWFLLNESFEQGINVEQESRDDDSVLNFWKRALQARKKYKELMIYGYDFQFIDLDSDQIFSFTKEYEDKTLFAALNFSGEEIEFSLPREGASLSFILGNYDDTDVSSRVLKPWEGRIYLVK

`C[C@@](O)(C(=O)O)[C@H](O)COC(=O)/C=C/c1ccc(O)c(O)c1` [PPT-14, 4-O-caffeoyl-2-C-methyl-D-threonic acid]: the values for the IC50 (against PTP1B; in assay [1]; in assay [2]) were 64.92 ± 0.34 µM, 14.5 µM and 19.5 ± 0.51 µM, respectively. Moreover, at α-glucosidase, the α-glucosidase inhibitory activity entry is “did not exhibit any α-glucosidase inhibitory activity”. For the same compound, the “DPPH IC50” value in assay [1] is on record as 4.5 µg/mL.

Take `O=C1O[C@H]([C@@H](O)CO)C(O)=C1O` [Ascorbic acid, reference compound]: in assay [1], the “DPPH IC50” value came to 5.6 µg/mL and the IC50 came out at 31.8 µM.
